Assay results as given in US20250195484A1, “CEREBLON LIGANDS AND USES THEREOF” (priority 2022, published 2025).

Legend:
Type in all cases: cell-based
CBP = molecular target: T1, CBP (Homo sapiens, UniProt Q92793); experiment: CBP degradation, western blot, 22Rv1; settings: 22Rv1, 5 h
T1 construct: endogenous in cells; host or cells: 22Rv1
Description: (§1) WesternT Blot Analysis. Western blot analysis was performed essentially as described previously. The cells treated with indicated compounds were lysed in Radioimmunoprecipitation Assay Protein Lysis and Extraction Buffer (25 mmol/L Tris.HCl, pH 7.6, 150 mmol/L NaCl, 1% Nonidet P-40, 1% sodium deoxycholate, and 0.1% sodium dodecyl sulfate) containing proteinase inhibitor cocktail (Roche Diagnostics, Mannheim, Germany). Equal amounts of total protein were electrophoresed through 10% SDS-polyacrylamide gels after determination of protein concentration by BCA assay (Fisher Scientific, Pittsburgh, PA). The separated protein bands were transferred onto PVDF membranes (GE Healthcare Life Sciences, Marlborough, MA) and blotted against different antibodies, as indicated. The blots were scanned, and the band intensities were quantified using GelQuant.NET software provided by biochemlabsolutions.com. The relative mean intensity of target proteins was expressed after normalization to the intensity of glyceraldehyde-3-phosphate dehydrogenase bands.

P300 = molecular target: T2, P300 (Homo sapiens, UniProt Q09472); experiment: P300 degradation, western blot, 22Rv1; settings: 22Rv1, 5 h
T2 construct: endogenous in cells; host or cells: 22Rv1
Description: as §1

MOLM-16 = experiment: Cell viability assay (CellTiter-Glo 2.0), MOLM-16; settings: MOLM16; MOLM-16 cells
STAT3 = molecular target: T3, STAT3 (Homo sapiens, UniProt P40763); experiment: STAT3 degradation HiBiT assay (STAT3-HIBIT KI HeLa); settings: STAT3-HIBIT KI HeLa cells, 24 hours
T3 construct: host or cells: HeLa (STAT3-HiBiT CRISPR knock-in clone)
Description: STAT3-HIBIT KI HeLa cell line was purchased from Promega. This cell line is a clone created by using CRISPR-Cas9 to fuse HiBIT to the 3′ end of STAT3 in HeLa cells. DMEM medium and FBS were purchased from Gibco/Thermo Fisher Scientific. STAT3 degradation was determined based on quantification of luminescent signal using Nano-Glo HiBIT Lytic Detection System. In a typical procedure, cells seeded at 20000 cells per well in 96-well white plates (Corning) were incubated with serially diluted compounds for 24 hours at 37° C. with 5% CO2. At the end of treatment, Nano-Glo HiBIT Lytic Detection reagents was added to the wells and luminescence was acquired on TECAN PSARK plate reader. Untreated cells were used as control. Data points were fit with a four-parameter equation to generate a concentration-response curve. IC50 values were calculated using a nonlinear regression analysis of the mean±SD from triplicate.

SU-DHL-1 = experiment: Cell viability assay (CellTiter-Glo 2.0), SU-DHL-1; settings: Homo sapiens, 96 h; SU-DHL-1 cells, 4 days
Description: SU-DHL-1 and SUP-M2 cell viability was determined by CellTiter-Glo 2.0 Cell Viability Assay (Promega). […] In a typical procedure, cells seeded at 1000 cells per well in 384-well white plates (Corning) were incubated with serially diluted compounds for 4 days at 37° C. with 5% CO2. At the end of treatment, CellTiter-Glo 2.0 was added to the wells and luminescence was acquired on TECAN PSARK plate reader. Untreated cells were used as control. Data points were fit with a four-parameter equation to generate a concentration-response curve. IC50 values were calculated using a nonlinear regression analysis of the mean±SD from triplicate.

T3 sequence (P40763 whole entry): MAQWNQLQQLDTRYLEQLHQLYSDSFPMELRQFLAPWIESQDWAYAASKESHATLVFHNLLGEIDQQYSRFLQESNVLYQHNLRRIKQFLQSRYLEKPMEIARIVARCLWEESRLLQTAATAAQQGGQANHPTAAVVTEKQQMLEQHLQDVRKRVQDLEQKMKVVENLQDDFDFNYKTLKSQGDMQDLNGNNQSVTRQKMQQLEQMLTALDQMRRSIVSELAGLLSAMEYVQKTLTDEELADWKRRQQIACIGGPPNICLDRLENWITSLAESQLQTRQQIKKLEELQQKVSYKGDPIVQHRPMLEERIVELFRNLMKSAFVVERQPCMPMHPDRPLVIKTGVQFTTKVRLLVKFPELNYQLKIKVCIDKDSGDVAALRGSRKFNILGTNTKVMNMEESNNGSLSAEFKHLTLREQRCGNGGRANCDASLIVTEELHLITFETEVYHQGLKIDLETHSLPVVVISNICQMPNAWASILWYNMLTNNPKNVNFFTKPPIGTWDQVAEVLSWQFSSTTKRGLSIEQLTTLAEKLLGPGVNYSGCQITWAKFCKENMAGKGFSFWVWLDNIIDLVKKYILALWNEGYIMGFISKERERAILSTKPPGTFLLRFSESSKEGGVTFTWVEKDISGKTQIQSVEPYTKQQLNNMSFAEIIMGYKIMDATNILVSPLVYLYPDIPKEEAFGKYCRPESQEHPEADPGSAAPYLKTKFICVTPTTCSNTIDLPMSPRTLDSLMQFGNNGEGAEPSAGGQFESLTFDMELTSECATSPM
T2 sequence (Q09472 whole entry): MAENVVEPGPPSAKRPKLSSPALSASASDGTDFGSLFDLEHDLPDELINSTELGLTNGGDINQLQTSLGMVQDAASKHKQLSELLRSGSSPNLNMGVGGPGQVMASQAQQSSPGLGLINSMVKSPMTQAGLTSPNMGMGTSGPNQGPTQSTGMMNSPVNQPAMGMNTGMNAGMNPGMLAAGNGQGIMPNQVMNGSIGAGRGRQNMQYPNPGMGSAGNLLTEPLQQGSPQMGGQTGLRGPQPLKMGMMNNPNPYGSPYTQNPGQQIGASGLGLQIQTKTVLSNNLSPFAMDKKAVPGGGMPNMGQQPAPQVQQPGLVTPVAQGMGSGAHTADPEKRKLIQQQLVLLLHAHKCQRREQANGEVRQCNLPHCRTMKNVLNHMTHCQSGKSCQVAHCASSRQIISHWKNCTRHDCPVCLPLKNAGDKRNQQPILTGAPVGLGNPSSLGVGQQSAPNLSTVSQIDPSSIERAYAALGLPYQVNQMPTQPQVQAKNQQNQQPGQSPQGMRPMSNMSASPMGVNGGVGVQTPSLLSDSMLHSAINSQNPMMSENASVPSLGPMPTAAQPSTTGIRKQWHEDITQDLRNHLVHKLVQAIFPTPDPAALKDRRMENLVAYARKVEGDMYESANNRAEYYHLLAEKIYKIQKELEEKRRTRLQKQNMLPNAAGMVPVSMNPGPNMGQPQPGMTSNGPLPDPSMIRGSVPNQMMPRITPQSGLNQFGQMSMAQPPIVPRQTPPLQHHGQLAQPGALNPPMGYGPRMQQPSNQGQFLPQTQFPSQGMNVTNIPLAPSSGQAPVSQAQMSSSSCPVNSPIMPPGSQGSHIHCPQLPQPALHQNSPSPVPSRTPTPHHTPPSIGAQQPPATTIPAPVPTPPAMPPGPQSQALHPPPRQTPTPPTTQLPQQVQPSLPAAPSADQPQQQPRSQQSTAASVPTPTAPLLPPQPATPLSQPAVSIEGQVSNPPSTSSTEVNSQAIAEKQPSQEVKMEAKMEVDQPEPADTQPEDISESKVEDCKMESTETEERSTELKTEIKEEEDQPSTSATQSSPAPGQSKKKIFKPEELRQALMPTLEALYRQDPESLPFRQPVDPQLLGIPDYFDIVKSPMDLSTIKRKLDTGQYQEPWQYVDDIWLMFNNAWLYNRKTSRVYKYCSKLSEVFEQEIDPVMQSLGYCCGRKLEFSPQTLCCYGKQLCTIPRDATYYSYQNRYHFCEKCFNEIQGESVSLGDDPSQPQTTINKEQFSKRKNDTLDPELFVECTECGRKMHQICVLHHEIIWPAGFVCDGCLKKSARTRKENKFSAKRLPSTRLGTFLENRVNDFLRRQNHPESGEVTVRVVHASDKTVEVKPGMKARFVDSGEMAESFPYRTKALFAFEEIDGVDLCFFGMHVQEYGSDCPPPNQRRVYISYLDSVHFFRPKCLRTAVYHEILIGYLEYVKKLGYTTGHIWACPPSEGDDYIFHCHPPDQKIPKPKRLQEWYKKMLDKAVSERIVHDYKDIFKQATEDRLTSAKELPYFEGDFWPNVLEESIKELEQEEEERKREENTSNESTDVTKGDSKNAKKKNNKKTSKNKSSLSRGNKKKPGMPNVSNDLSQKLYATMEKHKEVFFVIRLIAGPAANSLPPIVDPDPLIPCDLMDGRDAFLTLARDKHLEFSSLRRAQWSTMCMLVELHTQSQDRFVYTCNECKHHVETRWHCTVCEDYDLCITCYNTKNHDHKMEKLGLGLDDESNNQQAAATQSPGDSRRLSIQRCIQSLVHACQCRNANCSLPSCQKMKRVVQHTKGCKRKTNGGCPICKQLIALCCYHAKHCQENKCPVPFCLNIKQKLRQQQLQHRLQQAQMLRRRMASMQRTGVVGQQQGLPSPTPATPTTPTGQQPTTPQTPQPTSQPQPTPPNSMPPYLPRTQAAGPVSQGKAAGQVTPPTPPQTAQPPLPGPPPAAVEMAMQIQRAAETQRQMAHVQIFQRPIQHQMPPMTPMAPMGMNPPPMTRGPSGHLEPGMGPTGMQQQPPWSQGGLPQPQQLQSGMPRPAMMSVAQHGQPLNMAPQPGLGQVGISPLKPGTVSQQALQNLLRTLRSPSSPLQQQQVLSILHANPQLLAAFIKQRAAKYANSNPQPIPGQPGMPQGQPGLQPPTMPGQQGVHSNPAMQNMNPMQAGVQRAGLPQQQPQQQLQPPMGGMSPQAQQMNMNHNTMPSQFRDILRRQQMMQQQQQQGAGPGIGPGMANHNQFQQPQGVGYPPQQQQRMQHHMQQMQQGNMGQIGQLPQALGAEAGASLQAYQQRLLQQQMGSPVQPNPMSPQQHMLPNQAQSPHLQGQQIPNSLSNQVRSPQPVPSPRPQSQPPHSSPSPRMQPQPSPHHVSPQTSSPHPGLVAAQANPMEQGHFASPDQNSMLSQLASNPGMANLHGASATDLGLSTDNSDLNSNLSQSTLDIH

SMILES	CBP Degradation DCmax (CBP)	DC50 (CBP) [nM]	DC50 (P300) [nM]	P300 Degradation DCmax (P300)	IC50 (MOLM-16) [nM]	DC50 (STAT3) [nM]	Dmax (STAT3) [%]	IC50 (SU-DHL-1) [nM]
CC(=O)N1CCc2c(c(N3CCCc4cc(-c5cnn(C)c5)c(C(F)F)cc43)nn2[C@H]2CC[C@H](C(=O)N3CCC4(CC3)COc3c4ccc4c3CN([C@H]3CCC(=O)NC3=O)C4=O)CC2)C1 [CPD-005, (S)-3-(1′-((1r,4S)-4-(5-acetyl-3-(7-(difluoromethyl)-6-(1-methyl-1H-pyrazol-4-yl)-3,4-dihydroquinolin-1(2H)-yl)-4,5,6,7-tetrahydro-1H-pyrazolo[4,3-c]pyridin-1-yl)cyclohexane-1-carbonyl)-6-oxo-6,8-dihydro-2H,7H-spiro[furo[2,3-e]isoindole-3,4′-piperidin]-7-yl)piperidine-2,6-dione]	A (A (≥90%))	< 0.1	< 0.1	A (A (≥90%))	–	–	–	–
CC(=O)N1CCc2c(c(N3CCCc4cc(-c5cnn(C)c5)c(C(F)F)cc43)nn2[C@H]2CC[C@@H](C(=O)N3CCC4(CC3)COc3c4ccc4c3CN([C@H]3CCC(=O)NC3=O)C4=O)CC2)C1 [CPD-006, (S)-3-(1′-((1s,4R)-4-(5-acetyl-3-(7-(difluoromethyl)-6-(1-methyl-1H-pyrazol-4-yl)-3,4-dihydroquinolin-1(2H)-yl)-4,5,6,7-tetrahydro-1H-pyrazolo[4,3-c]pyridin-1-yl)cyclohexane-1-carbonyl)-6-oxo-6,8-dihydro-2H,7H-spiro[furo[2,3-e]isoindole-3,4′-piperidin]-7-yl)piperidine-2,6-dione]	A (A (≥90%))	< 0.1	0.1 to 1	A (A (≥90%))	–	–	–	–
CS(=O)(=O)c1cccc(OC[C@H](CCC(N)=O)NC(=O)[C@@H]2CC[C@@H]3CCN(C(=O)CCN4CCC5(CC4)COc4c5ccc5c4CN([C@H]4CCC(=O)NC4=O)C5=O)C[C@H](NC(=O)c4cc5cc(C(F)(F)P(=O)(O)O)ccc5s4)C(=O)N32)c1 [STD 69, ((2-(((5S,8S,10aR)-8-(((S)-5-amino-1-(3-(methylsulfonyl)phenoxy)-5-oxopentan-2-yl)carbamoyl)-3-(3-(7-((S)-2,6-dioxopiperidin-3-yl)-6-oxo-7,8-dihydro-2H,6H-spiro[furo[2,3-e]isoindole-3,4′-piperidin]-1′-yl)propanoyl)-6-oxodecahydropyrrolo[1,2-a][1,5]diazocin-5-yl)carbamoyl)benzo[b]thiophen-5-yl)difluoromethyl)phosphonic acid]	–	–	–	–	1000 to 10000	1000 to 10000	60 to 80	1000 to 10000
NC(=O)CC[C@H](NC(=O)[C@@H]1CC[C@@H]2CCN(C(=O)CCCCN3CCC4(CC3)COc3c4ccc4c3CN([C@H]3CCC(=O)NC3=O)C4=O)C[C@H](NC(=O)c3cc4cc(C(F)(F)P(=O)(O)O)ccc4s3)C(=O)N21)C(=O)NCc1cccc(Cl)c1 [STD 70, ((2-(((5S,8S,10aR)-8-(((S)-5-amino-1-((3-chlorobenzyl)amino)-1,5-dioxopentan-2-yl)carbamoyl)-3-(5-(7-((S)-2,6-dioxopiperidin-3-yl)-6-oxo-7,8-dihydro-2H,6H-spiro[furo[2,3-e]isoindole-3,4′-piperidin]-1′-yl)pentanoyl)-6-oxodecahydropyrrolo[1,2-a][1,5]diazocin-5-yl)carbamoyl)benzo[b]thiophen-5-yl)difluoromethyl)phosphonic acid]	–	–	–	–	1000 to 10000	100 to 1000	≥ 80	1000 to 10000
CS(=O)(=O)c1cccc(OC[C@H](CCC(N)=O)NC(=O)[C@@H]2CC[C@@H]3CCN(C(=O)CCCCN4CCC5(CC4)COc4c5ccc5c4CN([C@H]4CCC(=O)NC4=O)C5=O)C[C@H](NC(=O)c4cc5cc(C(F)(F)P(=O)(O)O)ccc5s4)C(=O)N32)c1 [STD 71, ((2-(((5S,8S,10aR)-8-(((S)-5-amino-1-(3-(methylsulfonyl)phenoxy)-5-oxopentan-2-yl)carbamoyl)-3-(5-(7-((S)-2,6-dioxopiperidin-3-yl)-6-oxo-7,8-dihydro-2H,6H-spiro[furo[2,3-e]isoindole-3,4′-piperidin]-1′-yl)pentanoyl)-6-oxodecahydropyrrolo[1,2-a][1,5]diazocin-5-yl)carbamoyl)benzo[b]thiophen-5-yl)difluoromethyl)phosphonic acid]	–	–	–	–	100 to 1000	100 to 1000	≥ 80	1000 to 10000
CC(C)S(=O)(=O)c1ccc(CNC(=O)[C@H](CCC(N)=O)NC(=O)[C@@H]2CC[C@@H]3CCN(C(=O)CCCCN4CCC5(CC4)COc4c5ccc5c4CN([C@H]4CCC(=O)NC4=O)C5=O)C[C@H](NC(=O)c4cc5cc(C(F)(F)P(=O)(O)O)ccc5s4)C(=O)N32)cc1 [STD 80, ((2-(((5S,8S,10aR)-8-(((S)-5-amino-1-((4-(isopropylsulfonyl)benzyl)amino)-1,5-dioxopentan-2-yl)carbamoyl)-3-(5-(7-((S)-2,6-dioxopiperidin-3-yl)-6-oxo-7,8-dihydro-2H,6H-spiro[furo[2,3-e]isoindole-3,4′-piperidin]-1′-yl)pentanoyl)-6-oxodecahydropyrrolo[1,2-a][1,5]diazocin-5-yl)carbamoyl)benzo[b]thiophen-5-yl)difluoromethyl)phosphonic acid]	–	–	–	–	100 to 1000	100 to 1000	≥ 80	1000 to 10000
CS(=O)(=O)c1cccc(OC[C@H](CCC(N)=O)NC(=O)[C@@H]2CC[C@@H]3CCN(C(=O)CCCCN4CCC5(CC4)COc4c5ccc5c4CN([C@H]4CCC(=O)NC4=O)C5=O)C[C@H](NC(=O)c4cc5cc(C(=O)P(=O)(O)O)ccc5[nH]4)C(=O)N32)c1 [STD 84, (2-(((5S,8S,10aR)-8-(((S)-5-amino-1-(3-(methylsulfonyl)phenoxy)-5-oxopentan-2-yl)carbamoyl)-3-(5-(7-((S)-2,6-dioxopiperidin-3-yl)-6-oxo-7,8-dihydro-2H,6H-spiro[furo[2,3-e]isoindole-3,4′-piperidin]-1′-yl)pentanoyl)-6-oxodecahydropyrrolo[1,2-a] [1,5]diazocin-5-yl)carbamoyl)-1H-indole-5-carbonyl)phosphonic acid]	–	–	–	–	100 to 1000	100 to 1000	≥ 80	1000 to 10000
CCS(=O)(=O)c1ccc(CNC(=O)[C@H](CCC(N)=O)NC(=O)[C@@H]2CC[C@@H]3CCN(C(=O)CCCCN4CCC5(CC4)COc4c5ccc5c4CN([C@H]4CCC(=O)NC4=O)C5=O)C[C@H](NC(=O)c4cc5cc(C(=O)P(=O)(O)O)ccc5[nH]4)C(=O)N32)cc1 [STD 85, (2-(((5S,8S,10aR)-8-(((S)-5-amino-1-((4-(ethylsulfonyl)benzyl)amino)-1,5-dioxopentan-2-yl)carbamoyl)-3-(5-(7-((S)-2,6-dioxopiperidin-3-yl)-6-oxo-7,8-dihydro-2H,6H-spiro[furo[2,3-e]isoindole-3,4′-piperidin]-1′-yl)pentanoyl)-6-oxodecahydropyrrolo[1,2-a] [1,5]diazocin-5-yl)carbamoyl)-1H-indole-5-carbonyl)phosphonic acid]	–	–	–	–	100 to 1000	100 to 1000	≥ 80	1000 to 10000
